Test results reported in the supplement of paper PMC6470124.

What was measured:
[1] = absolute recovery over vacuum-assisted evaporative concentration; higher = better recovery; details: enrichment method: VEC
In short: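 Samples of influent (6 mL), effluent (15 mL) and surface or nanopure water (60 mL) were spiked with standards before or after concentration, or left unspiked, at 200 ng/L (nanopure/surface) or 1000 ng/L (wastewater), adjusted by class and compound. Concentration was by evaporation at 55 °C and 20 mbar to about 0.3 mL, followed by adjustment to 0.4 mL and centrifugation. Internal standards were then added for LC-HRMS/MS analysis. Absolute recovery was (response ratio pre − unspiked)/(post − unspiked) × 100, using averages of ≥ 2 replicates.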

[2] = absolute recovery over mixed-bed multilayer solid-phase extraction; higher = better recovery; details: enrichment method: SPE
In short: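 Absolute recovery rests on background-corrected response ratios of pre- versus post-spiked samples, averaged over at least two replicates. Wastewater (100–250 mL, pH 6.5, glass-fibre filtered) was spiked at 1000 ng/L and unfiltered nanopure water (1000 mL) at 200 ng/L, before or after three-layer mixed-bed cartridge extraction or not at all, with exceptions for some classes. Analysis after internal standard addition used liquid chromatography with high-resolution tandem mass spectrometry in both ionisation modes.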

[3] = LC retention time (Atlantis T3, 5-95% MeOH gradient, 0.1% formic acid); higher = more retained / less polar
In short: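 Retention times were recorded for reference standards (purity ≥ 95%) on a polar reversed-phase C18 column (Atlantis T3, 3 × 150 mm, 3 μm) at 0.3 mL/min. Elution used water and methanol, each with 0.1% formic acid, in a gradient from 5 to 95% methanol over 17.5 min. Detection was by high-resolution tandem mass spectrometry on a QExactive Plus, with positive and negative electrospray in separate runs. Peaks were found and integrated in TraceFinder (5 ppm tolerance, at least three points per peak) and then checked by hand.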

| SMILES | absolute recovery ([1]; wastewater effluent) [%] | absolute recovery ([1]; wastewater influent) [%] | absolute recovery ([2]; nanopure water) [%] | absolute recovery ([2]; surface water) [%] | absolute recovery ([2]; wastewater effluent) [%] | absolute recovery ([2]; wastewater influent) [%] | LC retention time [3] [min] |
| --- | --- | --- | --- | --- | --- | --- | --- |
| O=C(NCc1ncc(C(F)(F)F)cc1Cl)c1c(Cl)cccc1Cl [Fluopicolide] | 115 | 109 | 95.7 | 104 | 97.2 | 93.4 | 19.6 |
| O=C([O-])COc1ccc(Cl)cc1Cl [2-4-D] | 103 | 106 | 95.6 | 94 | 93.5 | 91.2 | 19.3 |
| CC(C)(C)C(=O)C(Oc1ccc(Cl)cc1)n1ccnc1 (stereo not given) [Climbazol] | 106 | 101 | 98.6 | 96.1 | 91.7 | 90.1 | 16.5 |
| CON(C)C(=O)Nc1ccc(Cl)cc1 [Monolinuron] | 92.7 |  |  | 92.4 | 91.9 | 94.2 | 17.9 |
| COc1ccc(CN(CC[NH+](C)C)c2ccccn2)cc1 [Pyrilamine] | 94 | 99.9 | 83.7 | 87 | 87.3 | 88.2 | 18.4 |
| O=C(OC1CC2CCC(C1)[N+]21CCCC1)C(O)(c1ccccc1)c1ccccc1 (stereo not given) [Trospium] | 99.2 | 103 | 85.5 | 91.7 | 91.1 | 87.3 | 13.7 |
| N#Cc1c(Cl)c(Cl)c([O-])c(C(=[NH2+])[O-])c1Cl | 109 | 105 | 101 | 99.6 | 94.8 |  | 16.8 |
| O=c1[nH]c2c(c(=O)n1C1CCCCC1)CCC2 [Lenacil] | 102 | 103 | 93.2 | 87.6 | 92 | 92.4 | 18.6 |
| C[NH+](C)CCOC(C)(c1ccccc1)c1ccccn1 (stereo not given) [Doxylamine] | 120 | 109 | 84.3 | 91.3 | 94.8 | 85 | 10.8 |
| COC(=O)c1ccccc1S(=O)(=O)[N-]C(=O)Nc1nc(C)nc(OC)n1 [Metsulfuron-methyl] | 102 | 105 | 98.1 | 95.2 | 95.9 |  | 17 |
| Clc1ccccc1C(c1ccccc1)(c1ccccc1)n1ccnc1 [Clotrimazol] | 111 | 110 | 93.4 | 90.3 | 85.9 | 90.1 | 16.6 |
| CC(Oc1ccc(Oc2ccc(C(F)(F)F)cn2)cc1)C(=O)[O-] (stereo not given) [Fluazifop] | 101 | 102 | 99.5 | 96.8 | 96.6 | 98 | 19.7 |
| C#CC(C)(C)NC(=O)c1cc(Cl)cc(Cl)c1 [Propyzamide] | 82 | 88.4 | 97.1 | 88.9 | 87.8 | 101 | 20 |
| CCC[NH+](CC)CC1COC2(CCC(C(C)(C)C)CC2)O1 (stereo not given) [Spiroxamin] | 91.4 | 66.6 | 83 | 102 | 90.3 | 71.8 | 16.9 |
| C[NH+]=C([N-][N+](=O)[O-])NCc1cnc(Cl)s1 [Clothianidin] | 104 | 106 |  | 95.6 |  | 94.1 | 13.8 |
| CC(C1CC1)C(O)(Cn1cncn1)c1ccc(Cl)cc1 (stereo not given) [Cyproconazol] | 92.9 | 95.8 | 99.4 | 88.2 | 87.6 | 93.5 | 20.1 |
| C[NH+]1C2CCC1C(C(=O)[O-])C(OC(=O)c1ccccc1)C2 (stereo not given) [Benzoylecgonin] | 120 | 110 | 97.8 | 96 | 94.8 | 95.1 | 12.8 |
| CC(C)(C)Nc1nc(N)nc(Cl)n1 [Terbutylazin-desethyl] | 97.7 | 104 | 88.2 | 97.5 | 95.8 | 96.2 | 17.5 |
| C[NH+]=CNc1ccc(C)cc1C [N-(2-4-dimethylphenyl)-N-methylformamidine] | 76.9 | 79.1 | 35.1 | 27.7 | 47.9 | 52.5 | 11.1 |
| COC(=O)N(OC)c1ccccc1COc1ccn(-c2ccc(Cl)cc2)n1 [Pyraclostrobin] | 87.5 | 90.7 | 101 | 98 | 91.5 | 99.3 | 21.1 |
| CON(C)C(=O)Nc1ccc(Cl)c(Cl)c1 [Linuron] | 101 | 99.8 | 96.5 | 98.3 | 92.4 | 93.3 | 19.5 |
| CCCc1nc2c(C)cc(-c3nc4ccccc4n3C)cc2n1Cc1ccc(-c2ccccc2C(=O)[O-])cc1 [Telmisartan] | 86.1 | 82.1 | 108 | 82.5 | 88.5 | 126 | 17.1 |
| Cn1cc(C(=O)Nc2ccc(F)cc2-c2ccc(Cl)c(Cl)c2)c(C(F)F)n1 [Bixafen] | 109 | 108 | 95.4 | 101 | 102 | 76.1 | 20.5 |
| C[NH2+]CCCC(C#N)(c1ccc(OC)c(OC)c1)C(C)C (stereo not given) [D617] | 101 | 100 | 89.5 | 84.5 | 86.9 | 81.5 | 14 |
| COC=C(C(=O)OC)c1ccccc1Oc1cc(Oc2ccccc2C#N)ncn1 [Azoxystrobin] | 102 | 99.4 | 96.9 | 96 | 92.8 | 93.6 | 18.9 |
| CCC(C)(C)C(=O)OC1=C(c2ccc(Cl)cc2Cl)C(=O)OC12CCCCC2 [Spirodiclofen] | 77.8 | 44.4 |  | 12.2 | 18 |  | 23.8 |

Now from value to molecule:

| absolute recovery ([1]; wastewater effluent) [%] | absolute recovery ([1]; wastewater influent) [%] | absolute recovery ([2]; nanopure water) [%] | absolute recovery ([2]; surface water) [%] | absolute recovery ([2]; wastewater effluent) [%] | absolute recovery ([2]; wastewater influent) [%] | LC retention time [3] [min] | SMILES |
| --- | --- | --- | --- | --- | --- | --- | --- |
| 90.1 | 136 | 92.8 | 75.1 | 89.1 |  | 16.2 | CC[NH+](CC)CC#CCOC(=O)C(O)(c1ccccc1)C1CCCCC1 (stereo not given) [Oxybutynin] |
| 83.5 | 142 | 72.3 | 74.2 | 67.2 | 81.4 | 6.08 | CNC(=C[N+](=O)[O-])NCCS(=O)Cc1ccc(C[NH+](C)C)o1 (stereo not given) [Ranitidin-S-oxid] |
| 97 |  | 73.8 |  | 79.2 |  | 21.1 | CC(CCC(=O)[O-])C1CCC2C3C(O)CC4CC(O)CCC4(C)C3CCC12C (stereo not given) [Ursodeoxycholic-acid] |
| 108 | 91.4 | 96.2 | 92.9 | 90 | 90.1 | 18.3 | CC(C)c1nc(N(C)S(C)(=O)=O)nc(-c2ccc(F)cc2)c1C=CC(O)CC(O)CC(=O)[O-] (stereo not given) [Rosuvastatin] |
| 116 | 102 | 107 | 96.8 | 101 | 92.8 | 19 | COC(=O)c1ccc(I)cc1S(=O)(=O)[N-]C(=O)Nc1nc(C)nc(OC)n1 [Iodosulfuron-methyl] |
| 97 | 106 | 93.9 | 96.8 | 92.6 | 88 | 16.8 | NC1=C(Cl)C(=O)c2ccccc2C1=O [Quinoclamine] |
| 88.9 | 27.7 | 90.6 | 103 | 84.8 | 90.8 | 24.5 | CC1(C(=O)[O-])CCC2(C)CCC3(C)C(=CC(=O)C4C5(C)CCC(O)C(C)(C)C5CCC43C)C2C1 (stereo not drawn) [18-beta-Glycyrrhetinic-acid] |
| 108 | 93 | 76.1 | 36.1 | 78.5 | 77 | 16.6 | O=C1CC(C(=O)[O-])CC(=O)C1=C([O-])C1CC1 (stereo not given) [Trinexapac (free acid)] |
| 108 | 96.6 | 93.1 | 94.4 | 91.1 | 96.4 | 19.4 | CC(C)N(C(=O)CS(=O)(=O)[O-])c1ccccc1 [Propachlor-ESA] |
| 102 | 93.4 | 93.6 | 93.1 | 90.1 | 93.2 | 18.8 | CCOC(=O)C1CC(=O)C(=C([O-])C2CC2)C(=O)C1 (stereo not given) [Trinexapac-ethyl] |
| 90.2 | 90.4 | 80.1 | 95.7 | 87.5 | 98.8 | 17 | CCC1OC(=O)C(C)C(OC2CC(C)(OC)C(O)C(C)O2)C(C)C(OC2OC(C)CC([NH+](C)C)C2O)C(C)(O)CC(C)C(=NOCOCCOC)C(C)C(O)C1(C)O (stereo not given) [Roxithromycin] |
| 93.7 | 91.9 | 80.9 | 79.1 | 87.9 | 92 | 19.3 | CC(=O)SC1CC2=CC(=O)CCC2(C)C2CCC3(C)C(CCC34CCC(=O)O4)C12 (stereo not given) [Spironolacton] |
| 107 | 100 | 97.8 | 96.3 | 95.8 | 92.2 | 17.4 | O=C([O-])COCC[NH+]1CCN(C(c2ccccc2)c2ccc(Cl)cc2)CC1 (stereo not given) [Cetirizin] |
| 93.9 | 6.6 | 92.4 | 97.3 | 94.7 | 95.7 | 21.4 | CC(=O)C1CCC2C3CCC4=CC(=O)CCC4(C)C3CCC12C (stereo not given) [Progesteron] |
| 103 | 80.5 | 47.7 | 13.1 | 19.5 | 37 | 13.6 | CC1(C)CC1C(=O)NC(=CCCCCSCC([NH3+])C(=O)[O-])C(=O)[O-] (stereo not given) [Cilastatin] |
